pIC50: −log10 of the molar value. Read-outs that look alike come from different tables or passages of the source.
How the values were obtained:
Format in all cases: cell-based, human
C4a/C4b mRNA = assay: Complement gene mRNA expression, TaqMan real-time PCR, HepG2 cells; conditions: for pIC50: Homo sapiens, HepG2, 72 h, read-out: C4a/C4b (72 h) mRNA, half maximal inhibitory concentration (IC50)
From the text: (§1) In this example, mRNA levels from cultured cells were quantitated. The assay can be used to determine the effect of compound(s) on regulating mRNA levels, including those compounds in the present invention. Complement genes are expressed at high endogenous levels, but their expression can also be stimulated with various cytokines in inflammatory conditions. Experiments in this example target both basal and inflammatory complement gene expression. Compound mediated changes in gene expression and resulting mRNA levels are presented in Tables 2, 3 and 4 as well as FIGS. 1, 2, 3 and 4 below.
(§2) Huh-7 and HepG2 cells are liver-derived cell lines and are models for what can occur in the liver. Huh-7 cells (JCRB Cell Bank) were introduced to 96-well plates (^˜2.5×10^5 per well) in 100 μL DMEM containing 10% (v/v) FBS, 100 U/mL penicillin, 100 ug/mL streptomycin and 5 ug/mL plasmocin (all reagents from Gibco, except for the former, which was obtained from Invivogen). After 24 h, Huh-7 cells were treated with compounds in the same media formulation used for plating, and supplemented with 0.1% DMSO for the amount of time indicated in tables 2, 3, and 4. For select experiments, 24 h post-plating, cells were treated with cytokines and the compound of interest simultaneously, for a total treatment time of 48 h. Alternatively, 24 h after plating, cells were pre-treated with cytokines for 24 h before adding the compound of interest for 48 h. HepG2 cells (ATCC) were cultured in 96-well plates (^˜2.5×10^5 per well) in MEM containing 10% FBS, 1× non-essential amino acids, 1 mM sodium pyruvate, 2 mM L-glutamine, 100 U/mL penicillin, 100 ug/mL streptomycin and 5 ug/mL plasmocin. Serum amount was reduced to 0.5% for treatments with compound or cytokines. Timing of treatment of HepG2 cells with compounds and cytokines was as described for Huh-7 cells. Primary human hepatocytes (CellzDirect/Life Technologies) were plated in collagen coated 96-well plates at 70 000 cells/well, then overlaid with Matrigel™ as recommended by the supplier. Cells were treated with compounds of interest and/or cytokines for the indicated time points in the recommended media supplemented with 0.1% DMSO and 10% FBS (v/v). Cells were harvested by mRNA Catcher PLUS Kit (Life Technologies) followed by real-time PCR using the RNA UltraSense One-Step qRT-PCR System. The level of the mRNA of interest was measured by TaqMan real-time PCR relative to the endogenous control cyclophilin A in the same sample. Data were acquired using the ViiA-7 Real Time PCR System (Applied Biosystems).
(§3) Downregulation of expression of components of the complement cascade will result in reduced activity of the pathway and thus will constitute a positive result. Tables 2 and 3 list the concentration of compounds at which the level of the indicated mRNA is reduced by 50%, as well as the duration of treatment with compound. Table 4 lists the maximum reduction in the indicated mRNA measured in primary human hepatocytes treated with compounds for up to 72 hours. FIGS. 1, 2, 3 and 4 show effects of compounds on cytokine-induced (i.e. inflammatory) expression of complement genes in Huh-7 cells and HepG2 cells.

C3 mRNA = assay: as above; conditions: for pIC50: Homo sapiens
From the text: as §1, §2, §3

C5 mRNA = assay: as above; conditions: for pIC50: Homo sapiens, HepG2, 72 h, read-out: C5 (72 h) mRNA, half maximal inhibitory concentration (IC50)
From the text: as §1, §2, §3

complement C4 protein [1] = assay: Secreted complement protein ELISA, Huh-7 cells; conditions: for C4 secretion, percent maximum reduction in protein levels: Huh-7, 72 h, ± standard deviation
Procedure: (§4) In this example, protein secretion from cells grown in culture in the presence of compound of interest was analyzed by enzyme linked immunosorbent assay (ELISA). In some cases, cultured cells were treated with cytokines and the compound of interest to mimic an inflammatory state. The method can be used to determine the effect of compounds, including those in the present invention, on the secretion of specific proteins from cells grown in culture under basal and cytokine stimulated (i.e. inflammatory) conditions (Table 7, FIGS. 5 and 6).
(§5) Huh-7 cells (JCRB Cell Bank) were introduced to 24-well plates in 500 μL DMEM supplemented with 10% (v/v) FBS, 100 U/mL penicillin, 100 ug/mL streptomycin and 5 ug/mL plasmocin (all reagents from Gibco, except for the former, which comes from Invivogen) at 200 000 cells/well. After 24 h, cells were treated with the compound of interest and/or cytokines in DMEM with 10% FBS containing 0.1% DMSO for a total treatment time of 72 h. Fresh media containing compounds and/or cytokines was introduced in the final 24 h of the experiment. At harvest, media were collected, debris was removed by brief centrifugation, and ELISA assays for the indicated proteins were performed as per the manufacturer's protocol. To correct for differences in cell numbers, values obtained for complement proteins were normalized to values for transferrin. HepG2 cells (ATCC) were cultured in MEM containing 10% FBS, 1× non-essential amino acids, 1 mM sodium pyruvate, 2 mM L-glutamine, 100 U/mL penicillin, 100 ug/mL streptomycin and 5 ug/mL plasmocin. Serum amount was reduced to 0.5% when compounds were present. Treatment combinations and timing were as described above for Huh-7 cells. Primary human hepatocytes (CellzDirect/Life Technologies) were plated in collagen coated 96-well plates at 70 000 cells/well, then overlaid with Matrigel™ as recommended by the supplier. Cells were treated with compounds of interest with or without the indicated cytokines for a total of 72 h in the recommended media supplemented with 10% FBS and 0.1% DMSO (v/v). Media were collected for measurements of secreted proteins.
(§6) The ELISA kits for detection of complement C3, C4, C5 and C9 were obtained from AssayPro (St. Charles, Mo.), while the ELISA reagents for transferrin detection were from Bethyl Laboratories (Montgomery, Tex.). Data were collected on a Thermo Scientific Multiskan GO apparatus. Downregulation of expression of components of the complement cascade will result in reduced activity of the pathway and thus will constitute a positive result.

complement C5 protein [2] = assay: Secreted complement protein ELISA, Huh-7 cells; conditions: for C5 secretion, percent maximum reduction in protein levels: Huh-7, 72 h, ± standard deviation
Procedure: as §4, §5, §6

complement C3 protein [3] = assay: Secreted complement protein ELISA, Huh-7 cells; conditions: for C3 secretion, percent maximum reduction in protein levels: Huh-7, 72 h, ± standard deviation
Procedure: as §4, §5, §6

complement C4 protein [4] = assay: Secreted complement protein ELISA, HepG2 cells; conditions: HepG2, 72 h, ± standard deviation
Procedure: as §4, §5, §6

complement C5 protein [5] = assay: Secreted complement protein ELISA, HepG2 cells; conditions: HepG2, 72 h, ± standard deviation
Procedure: as §4, §5, §6

complement C3 protein [6] = assay: Secreted complement protein ELISA, HepG2 cells; conditions: HepG2, 72 h, ± standard deviation
Procedure: as §4, §5, §6

[7] = HepG2, 72 h, read-out: C3 (72 h) mRNA, half maximal inhibitory concentration (IC50)
[8] = HepG2 pre-treated with cytokines
[9] = HepG2 treated simultaneously with cytokines
[10] = 30 uM, Huh-7 treated simultaneously with IL-6

Cc1sc2c(c1C)C(c1ccc(Cl)cc1)=N[C@@H](CC(=O)OC(C)(C)C)c1nnc(C)n1-2 [JQ1, (S)-tert-butyl 2-(4-(4-chlorophenyl)-2,3,9-trimethyl-6H-thieno[3,2-f][1,2,4]triazolo[4,3-a][1,4]diazepin-6-yl)acetate, reference compound]
pIC50 (C4a/C4b mRNA): 6.60
pIC50 (C3 mRNA; HepG2, 48 h, read-out: C3 (48 h) mRNA, half maximal inhibitory concentration (IC50)): 6.70
pIC50 (C3 mRNA; [7]): 6.31
pIC50 (C5 mRNA): 6.34
C4 secretion, percent maximum reduction in protein levels (complement C4 protein [1]; 0.75 uM): 81 ± 6%
C5 secretion, percent maximum reduction in protein levels (complement C5 protein [2]; 0.75 uM): 50 ± 13%
C3 secretion, percent maximum reduction in protein levels (complement C3 protein [3]; 0.75 uM): 99 ± 1%
C4 secretion, percent maximum reduction in protein levels (complement C4 protein [4]; 0.75 uM): 81 ± 9%
C5 secretion, percent maximum reduction in protein levels (complement C5 protein [5]; 0.75 uM): 82 ± 7%
C3 secretion, percent maximum reduction in protein levels (complement C3 protein [6]; 0.75 uM): 54 ± 5%

COc1cc(OC)c2c(=O)[nH]c(-c3cc(C)c(OCCO)c(C)c3)nc2c1 [RVX000222, 2-(4-(2-hydroxyethoxy)-3,5-dimethylphenyl)-5,7-dimethoxyquinazolin-4(3H)-one]
expression of complement component 4 at the mRNA level (FIG. 4) (C4a/C4b mRNA; [8]): reduces expression
expression of complement component 4 at the mRNA level (FIG. 2) (C4a/C4b mRNA; [9]): reduces expression
pIC50 (C4a/C4b mRNA): 5.00
expression of complement component 3 at the mRNA level (FIG. 4) (C3 mRNA; [8]): reduces expression
expression of complement component 3 at the mRNA level (FIG. 2) (C3 mRNA; [9]): reduces expression
pIC50 (C3 mRNA; [7]): 4.60
expression of complement component 5 at the mRNA level (FIG. 4) (C5 mRNA; [8]): reduces expression
expression of complement component 5 at the mRNA level (FIG. 2) (C5 mRNA; [9]): reduces expression
pIC50 (C5 mRNA): 4.70
C4 secretion, percent maximum reduction in protein levels (complement C4 protein [1]; 30 uM): 79 ± 3%
secretion of C4 protein (FIG. 5) (complement C4 protein [1]; [10]): reduces secretion
C5 secretion, percent maximum reduction in protein levels (complement C5 protein [2]; 30 uM): 53 ± 7%
secretion of C5 protein (FIG. 5) (complement C5 protein [2]; [10]): reduces secretion
C3 secretion, percent maximum reduction in protein levels (complement C3 protein [3]; 30 uM): 87 ± 9%
secretion of C3 protein (FIG. 5) (complement C3 protein [3]; [10]): reduces secretion
C4 secretion, percent maximum reduction in protein levels (complement C4 protein [4]; 30 uM): 65 ± 5%
C5 secretion, percent maximum reduction in protein levels (complement C5 protein [5]; 30 uM): 77 ± 4%
C3 secretion, percent maximum reduction in protein levels (complement C3 protein [6]; 30 uM): 34 ± 5%

— patent US10111885B2, “Compositions and therapeutic methods for the treatment of complement-associated diseases” (Resverlogix Corp., priority 2015, dated 2018)
